Experimental data as given in patent publication US8293481B2, “Biomarkers for chronic vascular dysfunction” (Mayo Foundation for Medical Education and Research, priority 2006, dated 2012).

Legend:
Test in all cases: Affymetrix microarray gene expression in aorta post-infarction
Assay type in all cases: in vivo, rat
[1] = tested on: acyl-CoA thioesterase (ACOT8); conditions: 2 weeks, infarcted rats with or without captopril
From the text: (§1) After intubation, rats were ventilated continuously (room air) using a small animal ventilator (Model 683, Harvard Apparatus, Holliston, Mass.). A left lateral thoracotomy incision was made along the 5th intercostal space and after the pericardium was opened, the heart was exteriorized using a retention suture placed at the apex. The left anterior descending coronary artery (LAD) was ligated twice using 6-0 prolene suture (Ethicon, Cornelia, Ga.). After chest closure with running 3-0 vicryl suture (Ethicon), rats were put in a recovery chamber with a heating pad and warming light. The post-operative survival rate reached 80%. […] Rats were fed a standard diet of Teklad rodent feed (Harlan) ad libitum and kept on a 12:12 h light-dark cycle. Rats were sacrificed at designated time intervals of 2 weeks and 4 weeks after surgery. […] Isolation of total RNA: […] Surrounding peri-adventitial tissues, fat, and endothelium were then carefully cleaned away and removed. The remaining vascular smooth muscle was then frozen with liquid nitrogen, pulverized into fine powder, and resuspended in 600 μl of Buffer RLT with β-ME (10 μl β-ME: 1 ml Buffer RLT, Qiagen, Valencia, Calif.). The lysate was pipetted directly onto a QIAshredder spin column (Qiagen) placed in a 2 ml collection tube and centrifuged for 5 minutes at 14000 rpm, 4° C. The supernatant was transferred to a new microcentrifuge tube and 1 volume of 70% ethanol was added and mixed. The cleared lysate was then transferred to an RNeasy mini-column (Qiagen) placed in a 2 ml collection tube and spun for 15 seconds at ≧10,000 rpm, 4° C. The flow-through was discarded and 700 μl of Buffer RW1 (Qiagen) was added to the RNeasy column. After the column was spun for 15 seconds at ≧10,000 rpm (4° C.), it was transferred into a new 2 ml collection tube, washed, spun twice with 500 μl Buffer RPE (Qiagen), and eluted with 40 μl of RNase-free water using a microcentrifuge (≧10,000 rpm, 4° C.) for 1 minute. Final RNA samples were stored at −20° C. to prevent degradation. Determination of gene expression using Affymetrix microarrays: Gene expression analysis was conducted using a GeneChip Rat Genome 230 2.0 Array (Affymetrix, West Sacramento, Calif.), with sequences selected from the GENBANK® (World Wide Web at ncbi.nlm.nih.gov) database for expressed sequence tags (dbEST), and Reference Sequence (RefSeq) (Benson et al. (2007) Nucleic Acids Res. 35:D21-25; and Boguski et al. (1993) Nat. Genet. 4:332-333). These sequence clusters were created from the UniGene database (Wheeler et al. (2003) Nucleic Acids Res. 31:28-33; Build 99, June 2002, World Wide Web at ncbi.nlm.nih.gov) and then refined by analysis and comparison with the publicly available draft assembly of the rat genome from the Baylor College of Medicine Human Genome Sequencing Center (Gibbs et al. (2004) Nature 428:493-521). […] GENECHIP® Scanner 3000 and GENECHIP® Operating Software (GCOS) v1.1.1 (Affymetrix, West Sacramento, Calif.), enabled for high-resolution scanning, was used for the final microarray analysis. Differentially expressed genes are listed according to their GeneID number in the National Center for Biotechnology Information (NCBI) database. To ensure accurate analysis, a minimum of 3 ng of good quality total RNA at a concentration of ≧500 pg/μl was required. RNA (1 ng) was tested for its quality using an Agilent 2100 bioanalyzer (Agilent Technologies). A RNA Integrity Number (RIN) was assigned to each sample, and RIN ≧6 was considered satisfactory for proceeding with the microarray analysis. Statistics: The Affymetrix array was used to determine gene expression at 2 weeks and 4 weeks. Uninfarcted control aorta was then compared with both captopril and placebo treated aorta. Similarly, uninfarcted control portal vein was compared with both captopril and placebo treated portal vein. […]

[2] = tested on: cytochrome c oxidase subunit Va (Cox5a); conditions: 4 weeks post-infarction, higher with surgery
From the text: as §1

[3] = tested on: Sel (suppressor of lin-12) 1 homolog 1h. (Sel1h); conditions: 2 weeks, infarcted rats with or without captopril
From the text: as §1

[4] = tested on: trimethyllysine hydroxylase epsilon (Tmlhe); conditions: 4 weeks, surgery group without treatment less than baseline control
From the text: as §1

[5] = tested on: glycerophosphodiester phosphodiesterase (MIR16); conditions: 2 weeks, infarcted rats with or without captopril
From the text: as §1

[6] = tested on: regulated endocrine-specific protein 18 (Resp18); conditions: 4 weeks post-infarction, higher with surgery
From the text: as §1

[7] = tested on: CCAAT/enhancer binding protein (C/EBP) gamma (Cebpg); conditions: 4 weeks post-infarction, higher with surgery
From the text: as §1

[8] = tested on: TAO kinase 1 (Taok1); conditions: 2 weeks, infarcted rats with or without captopril
From the text: as §1

[9] = tested on: afadin (Af6); conditions: 2 weeks, infarcted rats with or without captopril
From the text: as §1

[10] = tested on: glutaminase 2 (Gls2); conditions: 4 weeks, highest in the infarct group without therapy
From the text: as §1

[11] = tested on: chemokine (C-X-C motif) ligand 12 (Cxcl12); conditions: 4 weeks, surgery group without treatment less than baseline control
From the text: as §1

[12] = tested on: trafficking protein particle complex 1 (Trappc1); conditions: 4 weeks post-infarction, higher with surgery
From the text: as §1

C[C@H](CS)C(=O)N1CCC[C@H]1C(=O)O [Captopril, 1-[(2S)-3-mercapto-2-methylpropionyl]-L-proline]
ACOT8 aortic expression level versus control rats without surgery [1]: higher | Cox5a expression in the aorta with captopril therapy versus surgery alone [2]: further increase in expression | Sel1h aortic expression level versus control rats without surgery [3]: higher | Tmlhe expression in the aorta with captopril [4]: increased expression | MIR16 aortic expression level versus control rats without surgery [5]: higher | Resp18 expression in the aorta with captopril therapy versus surgery alone [6]: further increase in expression | Cebpg expression in the aorta with captopril therapy versus surgery alone [7]: further increase in expression | Taok1 aortic expression level versus control rats without surgery [8]: higher | Af6 aortic expression level versus control rats without surgery [9]: higher | Gls2 expression in the aorta, captopril treated group among the groups [10]: lowest | Cxcl12 expression in the aorta with captopril [11]: increased expression | Trappc1 expression in the aorta with captopril therapy versus surgery alone [12]: further increase in expression
